Experimental findings from patent US9593108B2, “Compounds and methods for antiviral treatment” (PTC Therapeutics, Inc., priority 2009, dated 2017) are described below.

Data set [1] relates to HCV replicon RNA (GenBank Accession No. AJ242654). Kind of data set: HCV Replicon Assay (replicon RNA reduction and/or Fluc reporter signal). In kind it is cell-based, Hepatitis C virus. As to conditions: Hepatitis C virus, 72 h, replicon-containing cells cultured with test compound for up to 3 days. Put shortly: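 IC50 values mostly reflect the drop in replicon RNA, though Fluc reporter signal may also be used. Compound incubated with cells carrying the bicistronic replicon for as long as 3 days; interferon served as positive control.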

Usually IC50 stands for the point on the concentration scale where inhibition reaches its midpoint. A low value points to greater potency in that assay. Broadly, the melting point is the temperature of the solid-liquid transition. `Cc1cnc2c(C#N)c(-c3ccc(S(=O)(=O)N[C@@H](C)C(F)(F)F)cn3)n(-c3ccncn3)c2c1` [Cpd 481, 6-[3-cyano-6-methyl-1-(pyrimidin-4-yl)-1H-pyrrolo[3,2-b]pyridin-2-yl]-N-[(2S)-1,1,1-trifluoropropan-2-yl]pyridine-3-sulfonamide] showed a melting point of 265 to 267 °C. Also, the IC50 in data set [1] is less than 500 nM.
The like results for `Cc1cnc2c(C#N)c(-c3ccc(S(=O)(=O)N[C@@H](C)C(F)(F)F)cn3)n(-c3ccncc3)c2c1` [Cpd 482, 6-[3-cyano-6-methyl-1-(pyridin-4-yl)-1H-pyrrolo[3,2-b]pyridin-2-yl]-N-[(2S)-1,1,1-trifluoropropan-2-yl]pyridine-3-sulfonamide] were, in that order, 303 to 305 °C and less than 500 nM.
Turning to `Cc1cnc2c(c1)c(C#N)c(-c1ccc(S(=O)(=O)N[C@@H](C)C(F)(F)F)cc1)n2C` [Cpd 483, 4-(3-cyano-1,5-dimethyl-1H-pyrrolo[2,3-b]pyridin-2-yl)-N-[(2S)-1,1,1-trifluoropropan-2-yl]benzenesulfonamide], the melting point fell in the range of 165 to 170 °C. In data set [1], this compound yielded an IC50 of 500 to 2000 nM.
Consider `CCn1c(-c2ccc(S(=O)(=O)N[C@@H](C)C(F)(F)F)cc2)c(C#N)c2cc(C)cnc21` [Cpd 484, 4-(3-cyano-1-ethyl-5-methyl-1H-pyrrolo[2,3-b]pyridin-2-yl)-N-[(2S)-1,1,1-trifluoropropan-2-yl]benzenesulfonamide], for which the melting point is 147 to 152 °C. The compound further came in with an IC50 in data set [1] of 500 to 2000 nM.
In turn, `CCCn1c(-c2ccc(S(=O)(=O)N[C@@H](C)C(F)(F)F)cc2)c(C#N)c2cc(C)cnc21` [Cpd 485, 4-(3-cyano-5-methyl-1-propyl-1H-pyrrolo[2,3-b]pyridin-2-yl)-N-[(2S)-1,1,1-trifluoropropan-2-yl]benzenesulfonamide] came in with a melting point of 235 to 240 °C. Also, the half-inhibitory concentration (IC50) in data set [1] is less than 500 nM.
On the same counts, the results for `Cc1cnc2c(c1)c(C#N)c(-c1ccc(S(=O)(=O)N[C@@H](C)C(F)(F)F)cc1)n2C(C)C` [Cpd 486, 4-[3-cyano-5-methyl-1-(propan-2-yl)-1H-pyrrolo[2,3-b]pyridin-2-yl]-N-[(2S)-1,1,1-trifluoropropan-2-yl]benzenesulfonamide] are 197 to 202 °C and less than 500 nM.
The like results for `Cc1cnc2c(c1)c(C#N)c(-c1ccc(S(=O)(=O)N[C@@H](C)C(F)(F)F)cc1)n2CC1CC1` [Cpd 487, 4-[3-cyano-1-(cyclopropylmethyl)-5-methyl-1H-pyrrolo[2,3-b]pyridin-2-yl]-N-[(2S)-1,1,1-trifluoropropan-2-yl]benzenesulfonamide] were, in that order, 175 to 181 °C and less than 500 nM.
The like results for `Cc1cnc2c(c1)c(C#N)c(-c1ccc(S(=O)(=O)N[C@@H](C)C(F)(F)F)cc1)n2CC(C)C` [Cpd 488, 4-[3-cyano-5-methyl-1-(2-methylpropyl)-1H-pyrrolo[2,3-b]pyridin-2-yl]-N-[(2S)-1,1,1-trifluoropropan-2-yl]benzenesulfonamide] were, in that order, 168 to 176 °C and less than 500 nM.
Take `Cc1cnc2c(c1)c(C#N)c(-c1ccc(S(=O)(=O)N[C@@H](C)C(F)(F)F)cc1)n2CC1CCC1` [Cpd 489, 4-[3-cyano-1-(cyclobutylmethyl)-5-methyl-1H-pyrrolo[2,3-b]pyridin-2-yl]-N-[(2S)-1,1,1-trifluoropropan-2-yl]benzenesulfonamide]: the melting point was in the range of 154 to 158 °C. In data set [1], this compound showed an IC50 of less than 500 nM.
The like results for `Cc1cnc2c(c1)c(C#N)c(-c1ccc(S(=O)(=O)N[C@@H](C)C(F)(F)F)cn1)n2C` [Cpd 490, 6-(3-cyano-1,5-dimethyl-1H-pyrrolo[2,3-b]pyridin-2-yl)-N-[(2S)-1,1,1-trifluoropropan-2-yl]pyridine-3-sulfonamide] were, in that order, 182 to 186 °C and 500 to 2000 nM.
On the same counts, the results for `CCn1c(-c2ccc(S(=O)(=O)N[C@@H](C)C(F)(F)F)cn2)c(C#N)c2cc(C)cnc21` [Cpd 491, 6-(3-cyano-1-ethyl-5-methyl-1H-pyrrolo[2,3-b]pyridin-2-yl)-N-[(2S)-1,1,1-trifluoropropan-2-yl]pyridine-3-sulfonamide] are 168 to 171 °C and less than 500 nM.
In the case of `CCCn1c(-c2ccc(S(=O)(=O)N[C@@H](C)C(F)(F)F)cn2)c(C#N)c2cc(C)cnc21` [Cpd 492, 6-(3-cyano-5-methyl-1-propyl-1H-pyrrolo[2,3-b]pyridin-2-yl)-N-[(2S)-1,1,1-trifluoropropan-2-yl]pyridine-3-sulfonamide], the melting point fell in the range of 145 to 149 °C. The IC50 in data set [1] was less than 500 nM.
The like results for `Cc1cnc2c(c1)c(C#N)c(-c1ccc(S(=O)(=O)N[C@@H](C)C(F)(F)F)cn1)n2C(C)C` [Cpd 493, 6-[3-cyano-5-methyl-1-(propan-2-yl)-1H-pyrrolo[2,3-b]pyridin-2-yl]-N-[(2S)-1,1,1-trifluoropropan-2-yl]pyridine-3-sulfonamide] were, in that order, 157 to 162 °C and less than 500 nM.
The like results for `Cc1cnc2c(c1)c(C#N)c(-c1ccc(S(=O)(=O)N[C@@H](C)C(F)(F)F)cn1)n2CC1CC1` [Cpd 494, 6-[3-cyano-1-(cyclopropylmethyl)-5-methyl-1H-pyrrolo[2,3-b]pyridin-2-yl]-N-[(2S)-1,1,1-trifluoropropan-2-yl]pyridine-3-sulfonamide] were, in that order, 198 to 204 °C and less than 500 nM.
On the same counts, the results for `Cc1cnc2c(c1)c(C#N)c(-c1ccc(S(=O)(=O)N[C@@H](C)C(F)(F)F)cn1)n2CC(C)C` [Cpd 495, 6-[3-cyano-5-methyl-1-(2-methylpropyl)-1H-pyrrolo[2,3-b]pyridin-2-yl]-N-[(2S)-1,1,1-trifluoropropan-2-yl]pyridine-3-sulfonamide] are 125 to 130 °C and less than 500 nM.
Take `Cc1cnc2c(c1)c(C#N)c(-c1ccc(S(=O)(=O)N[C@@H](C)C(F)(F)F)cn1)n2CC1CCC1` [Cpd 496, 6-[3-cyano-1-(cyclobutylmethyl)-5-methyl-1H-pyrrolo[2,3-b]pyridin-2-yl]-N-[(2S)-1,1,1-trifluoropropan-2-yl]pyridine-3-sulfonamide]: the melting point lay in the range of 135 to 139 °C. Moreover, the IC50 in data set [1] was less than 500 nM.
Consider `C[C@H](NS(=O)(=O)c1ccc(-c2c(C#N)c3cc(N(C)C)cnc3n2C2CCC2)nc1)C(F)(F)F` [Cpd 497, 6-[3-cyano-1-cyclobutyl-5-(dimethylamino)-1H-pyrrolo[2,3-b]pyridin-2-yl]-N-[(2S)-1,1,1-trifluoropropan-2-yl]pyridine-3-sulfonamide], for which the melting point was in the range of 183 to 185 °C. For the same compound, the IC50 in data set [1] is less than 500 nM.
In the case of `CN(C)c1cnc2c(c1)c(C#N)c(-c1ccc(NS(=O)(=O)C(C)(C)C)cc1)n2C1CCC1` [Cpd 498, N-{4-[3-cyano-1-cyclobutyl-5-(dimethylamino)-1H-pyrrolo[2,3-b]pyridin-2-yl]phenyl}-2-methylpropane-2-sulfonamide], the melting point lay in the range of 200 to 202 °C. In data set [1], the IC50 was less than 500 nM.
The like results for `CN(C)c1cnc2c(c1)c(C#N)c(-c1ccc(NS(=O)(=O)C3(C)CC3)cc1)n2C1CCC1` [Cpd 499, N-{4-[3-cyano-1-cyclobutyl-5-(dimethylamino)-1H-pyrrolo[2,3-b]pyridin-2-yl]phenyl}-1-methylcyclopropanesulfonamide] were, in that order, 209 to 213 °C and less than 500 nM.
For the compound `C[C@H](NS(=O)(=O)c1ccc(-c2c(C#N)c3cc(N(C)C)cnc3n2C2CCC2)cc1)C(F)(F)F` [Cpd 500, 4-[3-cyano-1-cyclobutyl-5-(dimethylamino)-1H-pyrrolo[2,3-b]pyridin-2-yl]-N-[(2S)-1,1,1-trifluoropropan-2-yl]benzenesulfonamide], the melting point fell in the range of 198 to 200 °C. The compound further showed an IC50 in data set [1] of less than 500 nM.
In the case of `Cc1cnc2c(c1)c(C#N)c(-c1ccc(S(=O)(=O)N[C@@H](C)C(F)(F)F)cn1)n2-c1ccccc1F` [Cpd 501, 6-[3-cyano-1-(2-fluorophenyl)-5-methyl-1H-pyrrolo[2,3-b]pyridin-2-yl]-N-[(2S)-1,1,1-trifluoropropan-2-yl]pyridine-3-sulfonamide], the melting point is 128 °C (dec.). Moreover, the IC50 in data set [1] was less than 500 nM.
On the same counts, the results for `Cc1cnc2c(c1)c(C#N)c(-c1ccc(S(=O)(=O)N[C@@H](C)C(F)(F)F)cn1)n2-c1cccc(F)c1` [Cpd 502, 6-[3-cyano-1-(3-fluorophenyl)-5-methyl-1H-pyrrolo[2,3-b]pyridin-2-yl]-N-[(2S)-1,1,1-trifluoropropan-2-yl]pyridine-3-sulfonamide] are 238 to 240 °C and less than 500 nM.
In turn, `Cc1cnc2c(c1)c(C#N)c(-c1ccc(S(=O)(=O)N[C@@H](C)C(F)(F)F)cn1)n2-c1ccc(F)cc1` [Cpd 503, 6-[3-cyano-1-(4-fluorophenyl)-5-methyl-1H-pyrrolo[2,3-b]pyridin-2-yl]-N-[(2S)-1,1,1-trifluoropropan-2-yl]pyridine-3-sulfonamide] gave a melting point of 253 to 254 °C. In data set [1], the IC50 is less than 500 nM.
On the same counts, the results for `Cc1cnc2c(c1)c(C#N)c(-c1ccc(S(=O)(=O)N[C@@H](C)C(F)(F)F)cn1)n2-c1cc(F)ccc1F` [Cpd 504, 6-[3-cyano-1-(2,5-difluorophenyl)-5-methyl-1H-pyrrolo[2,3-b]pyridin-2-yl]-N-[(2S)-1,1,1-trifluoropropan-2-yl]pyridine-3-sulfonamide] are 232 to 234 °C and less than 500 nM.
Consider `Cc1cnc2c(c1)c(C#N)c(-c1ccc(S(=O)(=O)N[C@@H](C)C(F)(F)F)cn1)n2-c1ccc(F)c(F)c1` [Cpd 505, 6-[3-cyano-1-(3,4-difluorophenyl)-5-methyl-1H-pyrrolo[2,3-b]pyridin-2-yl]-N-[(2S)-1,1,1-trifluoropropan-2-yl]pyridine-3-sulfonamide], for which the melting point fell in the range of 250 to 252 °C. In data set [1], this compound displayed an IC50 of less than 500 nM.
